{"source": "patent US20030093842A1", "about": "“Resistance marker for monocotyledons” (Biogemma UK Limited, priority 1997, published 2003)", "tested_on": "immature embryos of NB1", "experiment": "Asulam kill curve: production of embryogenic callus by immature embryos on Asulam-supplemented W3 medium", "type": "cell-based, wheat", "settings": "scored after 6 weeks", "experimental": "The tissue culture protocol was essentially as the method of Weeks et al (Plant Physiol., 102:1077-1084 (1993)). Donor plants of the South American spring wheat line designated NB1, obtained from Nickerson Seeds Limited, were grown in a glasshouse under controlled conditions. Immature ears were harvested at 14-20 days post anthesis, and the immature caryopses were removed from the ear and dehusked using forceps. Caryopses were surface-sterilised with 70% ethanol for 2 minutes and 20% Domestos™ (Lever, UK) for 20-30 minutes and then washed with sterile distilled water. Immature embryos were isolated aseptically under a stereo dissecting microscope and placed scutella uppermost on W3 medium (MS supplemented with 20 g/l sucrose and 2 mg/l 2,4-D and solidified with 6 g/l Type I agarose [Sigma, Poole, UK]). Cultures were maintained at 25° C. with a 16 h photoperiod for 5 days prior to bombardment. Immature embryos were isolated as described for example 1, plated onto W3 medium and maintained in the dark. After 5-7 days embryos were transferred to W3 medium supplemented with Asulam (Rhone-Poulenc Agrochemicals, Ongar, UK) at a range of concentrations between 0 and 5 mg/l and maintained at 25° C. with a 16 h photo period. Embryos and embryo-derived embryogenic calli were transferred to fresh selective medium every 2 weeks. The calli were scored for embryogenic response after 6 weeks.", "data": [{"smiles": "COC(=O)NS(=O)(=O)c1ccc(N)cc1", "note": "[Asulam]", "values": [{"measurement": "Embryogenic response (%)", "setting": "Asulam 0.1 mg/l in W3 medium, (no. embryos with embryogenic callus/total no. embryos plated) × 100", "result": 100, "unit": "%"}, {"measurement": "Embryogenic response (%)", "setting": "Asulam 0.25 mg/l in W3 medium", "result": 64, "unit": "%"}, {"measurement": "Embryogenic response (%)", "setting": "Asulam 0.5 mg/l in W3 medium", "result": 28, "unit": "%"}, {"measurement": "Embryogenic response (%)", "setting": "Asulam 1 mg/l in W3 medium", "result": 0, "unit": "%"}, {"measurement": "Embryogenic response (%)", "setting": "Asulam 2 mg/l in W3 medium", "result": 0, "unit": "%"}, {"measurement": "Embryogenic response (%)", "setting": "Asulam 3 mg/l in W3 medium", "result": 0, "unit": "%"}, {"measurement": "Embryogenic response (%)", "setting": "Asulam 4 mg/l in W3 medium", "result": 0, "unit": "%"}, {"measurement": "Embryogenic response (%)", "setting": "Asulam 5 mg/l in W3 medium", "result": 0, "unit": "%"}]}]}
